Assay [1] addresses T1, Human TRPA1 expressing CHO cells (Homo sapiens, UniProt O75762).
T1 construct: expressed in transfected cells; host or cells: CHO cells (G-418 selection)
As to the kind of experiment: 45Calcium uptake assay, inhibition of AITC induced calcium uptake (human). Format: cell-based. The note with it: human TRPA1 CHO cells, AITC 30 μM; for inhibition at 1 µM: compound 1.0 μM, read-out: Percentage inhibition at 1.0 μM; for inhibition at 10 µM: compound 10.0 μM, read-out: Percentage inhibition at 10.0 μM; for IC50: read-out: Human IC50 value (Range). The procedure: (§1) Screening for TRPA1 Antagonist Using the ^45Calcium Uptake Assay:
(§2) The inhibition of TRPA1 receptor activation was measured as inhibition of allyl isothiocyanate (AITC) induced cellular uptake of radioactive calcium.
(§3) Test compounds were dissolved in 100% DMSO to prepare 10 mM stock and then diluted using plain medium with 0.1% BSA and 1.8 mM CaCl2 to get the desired concentration. The final concentration of DMSO in the reaction was 0.5% (v/v). […] Rat TRPA1 expressing CHO cells were grown in F-12 DMEM medium with 10% FBS, 1% penicillin-streptomycin solution, and 400 μg/ml of Zeocin. […] Cells were treated with the test compounds for 10 minutes followed by the addition of AITC at a final concentration of 30 μM (for human TRPA1) and/or 10 μM (for rat TRPA1) and 5 μCi/ml ^45Ca^+2 for 3 minutes. Cells were washed and lysed using a buffer containing 1% Triton X-100, 0.1% deoxycholate and 0.1% SDS. Radioactivity in the lysate was measured in a Packard TopCount after addition of liquid scintillant.
(§4) Concentration response curves were plotted as a % of maximal response obtained in the absence of test antagonist. IC50 values can be calculated from concentration response curve by nonlinear regression analysis using GraphPad PRISM software.

Assay [2] addresses T2, Rat TRPA1 expressing CHO cells (Rattus norvegicus, UniProt Q6RI86).
T2 construct: expressed in transfected cells; host or cells: CHO cells (Zeocin selection)
As to the kind of experiment: 45Calcium uptake assay, inhibition of AITC induced calcium uptake (rat). The note with it: rat TRPA1 CHO cells, AITC 10 μM; for inhibition at 1 µM: compound 1.0 μM, read-out: Percentage inhibition at 1.0 μM; for inhibition at 10 µM: compound 10.0 μM, read-out: Percentage inhibition at 10.0 μM; for IC50: read-out: Rat IC50 value (Range). It is filed as cell-based. The procedure: as §1, §2, §3, §4

T1 sequence (O75762 whole entry): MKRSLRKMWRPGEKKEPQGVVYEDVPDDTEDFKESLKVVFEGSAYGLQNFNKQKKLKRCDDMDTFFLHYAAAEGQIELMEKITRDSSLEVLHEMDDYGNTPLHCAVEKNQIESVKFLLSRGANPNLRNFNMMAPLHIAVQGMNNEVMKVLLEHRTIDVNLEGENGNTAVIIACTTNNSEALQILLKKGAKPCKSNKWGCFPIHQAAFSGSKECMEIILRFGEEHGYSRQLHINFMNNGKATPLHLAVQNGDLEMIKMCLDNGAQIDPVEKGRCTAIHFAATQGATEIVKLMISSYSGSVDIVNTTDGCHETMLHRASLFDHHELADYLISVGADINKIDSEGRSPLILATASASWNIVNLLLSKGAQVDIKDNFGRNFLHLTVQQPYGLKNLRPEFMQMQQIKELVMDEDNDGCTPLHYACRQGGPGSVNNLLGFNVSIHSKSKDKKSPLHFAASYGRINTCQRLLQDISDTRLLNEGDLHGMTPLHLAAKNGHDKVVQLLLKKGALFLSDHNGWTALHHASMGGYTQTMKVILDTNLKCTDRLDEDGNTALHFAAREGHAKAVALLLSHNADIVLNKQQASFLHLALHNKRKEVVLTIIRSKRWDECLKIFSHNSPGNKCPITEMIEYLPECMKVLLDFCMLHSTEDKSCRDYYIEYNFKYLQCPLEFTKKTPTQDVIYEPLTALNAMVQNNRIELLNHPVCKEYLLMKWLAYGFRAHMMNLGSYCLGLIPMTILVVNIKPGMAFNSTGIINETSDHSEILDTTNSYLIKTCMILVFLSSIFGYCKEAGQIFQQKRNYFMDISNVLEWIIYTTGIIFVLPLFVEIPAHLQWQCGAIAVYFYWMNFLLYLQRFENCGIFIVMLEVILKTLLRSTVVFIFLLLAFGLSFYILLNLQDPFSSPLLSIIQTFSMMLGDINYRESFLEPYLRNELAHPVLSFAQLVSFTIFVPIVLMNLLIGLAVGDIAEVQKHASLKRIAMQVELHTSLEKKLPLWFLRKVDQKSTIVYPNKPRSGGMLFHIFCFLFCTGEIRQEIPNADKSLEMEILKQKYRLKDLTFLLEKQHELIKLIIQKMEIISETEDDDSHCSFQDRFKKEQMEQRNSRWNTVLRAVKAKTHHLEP
T2 sequence (Q6RI86 whole entry): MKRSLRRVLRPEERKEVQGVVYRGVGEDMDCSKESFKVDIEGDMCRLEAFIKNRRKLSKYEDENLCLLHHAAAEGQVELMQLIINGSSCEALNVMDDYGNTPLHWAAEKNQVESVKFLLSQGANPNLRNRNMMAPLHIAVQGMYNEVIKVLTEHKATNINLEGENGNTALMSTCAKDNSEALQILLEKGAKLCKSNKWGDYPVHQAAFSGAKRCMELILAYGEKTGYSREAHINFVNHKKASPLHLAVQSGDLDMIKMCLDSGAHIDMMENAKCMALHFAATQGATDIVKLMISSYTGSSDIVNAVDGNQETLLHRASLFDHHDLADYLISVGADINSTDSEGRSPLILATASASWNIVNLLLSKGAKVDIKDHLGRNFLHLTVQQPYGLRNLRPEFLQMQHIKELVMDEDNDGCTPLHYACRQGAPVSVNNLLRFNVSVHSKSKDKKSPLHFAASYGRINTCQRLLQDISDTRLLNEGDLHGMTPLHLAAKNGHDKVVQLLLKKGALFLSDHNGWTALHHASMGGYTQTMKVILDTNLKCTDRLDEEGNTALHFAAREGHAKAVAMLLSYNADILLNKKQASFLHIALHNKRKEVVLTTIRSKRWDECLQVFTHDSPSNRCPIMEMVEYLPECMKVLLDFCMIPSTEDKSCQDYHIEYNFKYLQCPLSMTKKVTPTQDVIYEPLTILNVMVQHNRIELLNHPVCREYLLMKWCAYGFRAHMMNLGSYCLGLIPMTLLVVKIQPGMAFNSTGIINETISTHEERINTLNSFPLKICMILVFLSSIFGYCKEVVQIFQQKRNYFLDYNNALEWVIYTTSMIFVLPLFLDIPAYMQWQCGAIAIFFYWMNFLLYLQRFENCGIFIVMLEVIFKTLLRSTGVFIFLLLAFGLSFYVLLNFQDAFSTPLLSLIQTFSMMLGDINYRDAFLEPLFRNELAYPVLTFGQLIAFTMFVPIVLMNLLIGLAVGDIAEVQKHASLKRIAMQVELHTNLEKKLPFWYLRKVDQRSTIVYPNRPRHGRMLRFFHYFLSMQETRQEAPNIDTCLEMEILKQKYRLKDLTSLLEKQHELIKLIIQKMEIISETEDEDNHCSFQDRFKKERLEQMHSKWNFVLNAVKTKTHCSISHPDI

Consider `Cn1c(=O)c2c(CC(=O)Nc3nc(-c4ccc(OC(F)(F)F)c(F)c4)cs3)csc2n(C)c1=O` [Example 11, 2-(1,3-Dimethyl-2,4-dioxo-1,2,3,4-tetrahydrothieno[2,3-d]pyrimidin-5-yl)-N-{4-[3-fluoro-4-(trifluoromethoxy)phenyl]-1,3-thiazol-2-yl}acetamide], for which, in assay [1], the inhibition (as a rule, the share of the control response that was lost under treatment) at 1 µM stood at 98.6%; the inhibition at 10 µM stood at 97.1%; the IC50 – broadly, the concentration needed to halve the response being measured – is under 50 nM. In addition, in assay [2], the inhibition at 1 µM is 98.8%, the inhibition at 10 µM was determined as 99.8% and the half-inhibitory concentration (IC50) is under 50 nM.
As for `Cn1c(=O)c2c(CC(=O)Nc3nc(-c4ccc(Cl)c(Cl)c4)cs3)csc2n(C)c1=O` [Example 12, N-[4-(3,4-Dichlorophenyl)-1,3-thiazol-2-yl]-2-(1,3-dimethyl-2,4-dioxo-1,2,3,4-tetrahydrothieno[2,3-d]pyrimidin-5-yl)acetamide], in assay [1], the inhibition at 1 µM is 99.7%, the inhibition at 10 µM worked out at 99.8% and the IC50 is under 50 nM. Further, in assay [2], the inhibition at 1 µM is 97.8%, the inhibition at 10 µM was 100% and the half-maximal inhibitory concentration (IC50) lay in the range of 50 to 500 nM.
On to `Cn1c(=O)c2c(CC(=O)Nc3nc(-c4ccc(F)c(C(F)(F)F)c4F)cs3)csc2n(C)c1=O` [Example 13, N-{4-[2,4-Difluoro-3-(trifluoromethyl)phenyl]-1,3-thiazol-2-yl}-2-(1,3-dimethyl-2,4-dioxo-1,2,3,4-tetrahydrothieno[2,3-d]pyrimidin-5-yl)acetamide], for which, in assay [1], the inhibition at 1 µM was 98.2%, the inhibition at 10 µM worked out at 98.1% and the concentration for half-maximal inhibition (IC50) is under 50 nM. Also, the half-maximal inhibitory concentration (IC50) in assay [2] is under 50 nM.
For the molecule `Cn1c(=O)c2c(CC(=O)Nc3nc(-c4cc(F)c(C(F)(F)F)c(F)c4)cs3)csc2n(C)c1=O` [Example 16, N-{4-[3,5-Difluoro-4-(trifluoromethyl)phenyl]-thiazol-2-yl}-2-(1,3-dimethyl-2,4-dioxo-1,2,3,4-tetrahydrothieno[2,3-d]pyrimidin-5-yl)acetamide], in assay [1], the inhibition at 1 µM was 99.1%, the inhibition at 10 µM was found to be 99.1% and the 50% inhibitory concentration (IC50) is under 50 nM. Also, in assay [2], the inhibition at 1 µM stood at 38.7% and the inhibition at 10 µM is 98.7%.
On to `Cc1sc2c(c1CC(=O)Nc1nc(-c3ccc(C(C)(C)C)cc3)cs1)c(=O)n(C)c(=O)n2C` [Example 17, N-[4-(4-tert-Butylphenyl)-1,3-thiazol-2-yl]-2-(1,3,6-trimethyl-2,4-dioxo-1,2,3,4-tetrahydrothieno[2,3-d]pyrimidin-5-yl)acetamide], for which, in assay [1], the inhibition at 1 µM turned out to be 97.5%, the inhibition at 10 µM stood at 98.8% and the IC50 lay within 50 to 500 nM. Further, in assay [2], the inhibition at 1 µM was found to be 93.1%, the inhibition at 10 µM turned out to be 99.2% and the IC50 was in the range of 50 to 500 nM.
With `Cc1sc2c(c1CC(=O)Nc1nc(-c3cccc(OC(F)(F)F)c3)cs1)c(=O)n(C)c(=O)n2C` [Example 18, N-{4-[3-(Trifluoromethoxy)phenyl]-1,3-thiazol-2-yl}-2-(1,3,6-trimethyl-2,4-dioxo-1,2,3,4-tetrahydrothieno[2,3-d]pyrimidin-5-yl)acetamide], in assay [1], the inhibition at 1 µM came out at 98.5%, the inhibition at 10 µM was 100% and the IC50 was in the range of 50 to 500 nM. In assay [2], the inhibition at 1 µM is 95.7% and the inhibition at 10 µM turned out to be 100%.
With `Cc1sc2c(c1CC(=O)Nc1nc(-c3ccc(Cl)cc3)cs1)c(=O)n(C)c(=O)n2C` [Example 19, N-[4-(4-Chlorophenyl)-1,3-thiazol-2-yl]-2-(1,3,6-trimethyl-2,4-dioxo-1,2,3,4-tetrahydrothieno[2,3-d]pyrimidin-5-yl)acetamide], in assay [1], the inhibition at 1 µM was 95%, the inhibition at 10 µM is 98.2% and the IC50 was 50 to 500 nM. In assay [2], the inhibition at 1 µM came out at 89.4% and the inhibition at 10 µM came to 99.2%.
`Cc1sc2c(c1CC(=O)Nc1nc(-c3ccc(Cl)c(Cl)c3)cs1)c(=O)n(C)c(=O)n2C` [Example 20, N-[4-(3,4-Dichlorophenyl)-1,3-thiazol-2-yl]-2-(1,3,6-trimethyl-2,4-dioxo-1,2,3,4-tetrahydrothieno[2,3-d]pyrimidin-5-yl)acetamide]: in assay [1], the inhibition at 1 µM stood at 99%, the inhibition at 10 µM came out at 99.6% and the IC50 is under 50 nM. Moreover, in assay [2], the inhibition at 1 µM came to 83.4%, the inhibition at 10 µM amounted to 91.2% and the IC50 lay within 50 to 500 nM.
`Cc1sc2c(c1CC(=O)Nc1nc(-c3cccc(F)c3F)cs1)c(=O)n(C)c(=O)n2C` [Example 21, N-[4-(2,3-Difluorophenyl)-1,3-thiazol-2-yl]-2-(1,3,6-trimethyl-2,4-dioxo-1,2,3,4-tetrahydrothieno[2,3-d]pyrimidin-5-yl)acetamide]: in assay [1], the inhibition at 1 µM is 95.4%, the inhibition at 10 µM worked out at 100% and the IC50 fell in the range of 50 to 500 nM. In assay [2], the inhibition at 1 µM came out at 93.5% and the inhibition at 10 µM was 99.7%.
Take `Cc1sc2c(c1CC(=O)Nc1nc(-c3ccc(F)cc3F)cs1)c(=O)n(C)c(=O)n2C` [Example 22, N-[4-(2,4-Difluorophenyl)-1,3-thiazol-2-yl]-2-(1,3,6-trimethyl-2,4-dioxo-1,2,3,4-tetrahydrothieno[2,3-d]pyrimidin-5-yl)acetamide]: in assay [1], the inhibition at 1 µM amounted to 89.8%, the inhibition at 10 µM worked out at 100% and the IC50 lay within 50 to 500 nM. In assay [2], the inhibition at 1 µM is 89.8% and the inhibition at 10 µM amounted to 99.8%.
`Cc1sc2c(c1CC(=O)Nc1nc(-c3ccc(F)c(C(F)(F)F)c3)cs1)c(=O)n(C)c(=O)n2C` [Example 23, N-{4-[4-Fluoro-3-(trifluoromethyl)phenyl]-1,3-thiazol-2-yl}-2-(1,3,6-trimethyl-2,4-dioxo-1,2,3,4-tetrahydrothieno[2,3-d]pyrimidin-5-yl)acetamide]: in assay [1], the inhibition at 1 µM is 97.7%, the inhibition at 10 µM was determined as 99% and the half-inhibitory concentration (IC50) is under 50 nM. Further, in assay [2], the inhibition at 1 µM was determined as 100%, the inhibition at 10 µM stood at 99.7% and the IC50 is 50 to 500 nM.
Turning to `Cc1sc2c(c1CC(=O)Nc1nc(-c3ccc(C(F)(F)F)c(F)c3)cs1)c(=O)n(C)c(=O)n2C` [Example 24, N-{4-[3-Fluoro-4-(trifluoromethyl)phenyl]-1,3-thiazol-2-yl}-2-(1,3,6-trimethyl-2,4-dioxo-1,2,3,4-tetrahydrothieno[2,3-d]pyrimidin-5-yl)acetamide], in assay [1], the inhibition at 1 µM was determined as 98.5%, the inhibition at 10 µM stood at 99.9% and the IC50 is under 50 nM. Moreover, in assay [2], the inhibition at 1 µM stood at 99.8%, the inhibition at 10 µM was found to be 100% and the IC50 lay within 50 to 500 nM.
Take `Cc1sc2c(c1CC(=O)Nc1nc(-c3ccc(F)c(OC(F)(F)F)c3)cs1)c(=O)n(C)c(=O)n2C` [Example 25, N-{4-[4-Fluoro-3-(trifluoromethoxy)phenyl]-1,3-thiazol-2-yl}-2-(1,3,6-trimethyl-2,4-dioxo-1,2,3,4-tetrahydrothieno[2,3-d]pyrimidin-5-yl)acetamide]: in assay [1], the inhibition at 1 µM was determined as 98.5%, the inhibition at 10 µM is 98.8% and the half-inhibitory concentration (IC50) is under 50 nM. In assay [2], the inhibition at 1 µM is 99.2%, the inhibition at 10 µM is 99.3% and the IC50 fell in the range of 50 to 500 nM.
On to `Cc1sc2c(c1CC(=O)Nc1nc(-c3ccc(OC(F)(F)F)c(F)c3)cs1)c(=O)n(C)c(=O)n2C` [Example 26, N-{4-[3-Fluoro-4-(trifluoromethoxy)phenyl]-1,3-thiazol-2-yl}-2-(1,3,6-trimethyl-2,4-dioxo-1,2,3,4-tetrahydrothieno[2,3-d]pyrimidin-5-yl)acetamide], for which, in assay [1], the inhibition at 1 µM amounted to 100%, the inhibition at 10 µM turned out to be 100% and the IC50 is under 50 nM. For the same molecule, in assay [2], the inhibition at 1 µM came out at 98.2%, the inhibition at 10 µM was 98.1% and the concentration for half-maximal inhibition (IC50) fell in the range of 50 to 500 nM.
As for `Cc1sc2c(c1CC(=O)Nc1nc(-c3ccc(F)c(C(F)(F)F)c3F)cs1)c(=O)n(C)c(=O)n2C` [Example 27, N-{4-[2,4-Difluoro-3-(trifluoromethyl)phenyl]-1,3-thiazol-2-yl}-2-(1,3,6-trimethyl-2,4-dioxo-1,2,3,4-tetrahydrothieno[2,3-d]pyrimidin-5-yl)acetamide], in assay [1], the inhibition at 1 µM amounted to 93.2%, the inhibition at 10 µM is 99.1% and the 50% inhibitory concentration (IC50) is under 50 nM. In assay [2], the inhibition at 1 µM was found to be 97.9%, the inhibition at 10 µM came out at 98% and the IC50 fell in the range of 50 to 500 nM.

The values are drawn from patent US9474758B2, “Thienopyrimidinedione derivatives as TRPA1 modulators” (Glenmark Pharmaceuticals S.A., priority 2009, dated 2016).
